Key:
PERK geneset = test: RNAseq geneset analysis in HEK293T cells, PERK geneset; type: cell-based, human; details: 6 h
Procedure: Cells were lysed and total RNA collected using the RNeasy mini kit, according to manufacturer's instructions (Qiagen). Conventional RNA-seq was conducted via BGI Americas on the BGI Proprietary platform, providing single-end 50 bp reads at 20 million reads per sample. Alignment of sequencing data was done using DNAstar Lasergene SeqManPro to the GRCh37. p 13 human genome reference assembly, and assembly data were imported into ArrayStar 12.2 with QSeq (DNAStar Inc.) to quantify the gene expression levels and normalization to reads per kilobase per million (RPKM). Differential expression analysis and statistical significance calculations between different conditions was assessed using “DESeq” in R, compared to vehicle-treated cells, using a standard negative binomial fit of the RPKM data to generate Fold Change quantifications.
The purpose of this example was to define the ability of the compounds to selectively induce expression of IRE1/XBP1s target genes: for this purpose, RNAseq was performed on HEK293T cells that had been treated with compound No. 198, 474, or 970 for 6 h. As a control, RNAseq was performed on cells that had been treated with the global UPR activator Tg. […] These include the ER stress-responsive transcription factor XBP1 and the ER proteostasis factors SEC24D, […], and HERPUD1^8.
The next step defined the selectivity of the compounds for IRE1/XBP1s signaling relative to other arms of the UPR. […] To overcome this challenge, the expression of individual genes that are included in these genesets were normalized to the expression observed in Tg-treated cells (Tg representing 100% activation of these genes). It was therefore possible to directly compare gene expression without complications arising from differential expression^42.

extracellular Aβ = test: Aβ in media conditioned on CHO 7WD10 cells (wild-type APP); type: cell-based; details: CHO 7WD10, APP WT
Procedure: 7PA2 or 7WD10 cells were cultured on 96-well plates (Corning) and treated with IRE1 activating compounds +/−4 μ8c overnight. The medium was then replaced at 50% volume with treatment remaing, culture medium was collected after 24 hours. The medium was analyzed by an AP ELISA as follows. Monoclonal 6E10 anti-Aβ(residues 1-17) mouse IgG1, (Biolegend) was coated in […] carbonate buffer, pH 9.6, at 4° C. overnight on high binding assay black plates (Costar), washed with TBST (tris buffered saline with 0.05% Tween 20) and blocked with 5% non-fat milk in TBST. Samples and standards (condition 7PA2 media) were incubated for 1.5 hr, followed by addition of 4G8 antibody [anti-Aβ residues 17-24, mouse IgG2b (Biolegend)] conjugated to horseradish peroxidase (hrp) and incubated for 1.5 hr at 25° C. After washing, ABM substrate was added, followed by detection with an absorbance plate reader.
ELISA was used to monitor Aβ in media conditioned on a CHO cell line stably expressing the destabilized, disease-associated V717F APP mutant (CHO^7PA2)^45 treated with or without compounds 198, 474, and 970. […] The reduction in A secretion can be attributed to IRE1 activation because the reduced extracellular accumulation of Aβ is blocked by co-treatment with the active site IRE1 inhibitor 4 μ8c (FIG. 5A).

CHO 7WD10 cells = test: CHO 7WD10 viability; type: cell-based
CHO 7PA2 cells = test: CHO 7PA2 viability; type: cell-based
[1] = test system: IRE1/XBP1s signaling pathway; test: XBP1-RLuc splicing reporter in HEK293T-REx cells; type: cell-based; details: HEK293-T-REx; HEK293T-REx XBP1-RLuc cells, 18 hr; read-out: EC50 of XBP1-RLuc activation
Procedure: FIG. 2A and FIG. 2B. Activation of RLuc luminescence in HEK293T-Rex cells stably expressing XBP1s-RLuc treated with 10 μM IRE1 activators in the presence or absence of IRE1 inhibitor 4 μ8c (32 μM) for 18 hr. Luminescence is shown as % signal relative to Tg treatment (500 nM; 18 hr). Error bars represent standard deviation for n=3 replicates (FIG. 2A), Activation of RLuc luminescence in HEK293T-Rex cells stably expressing XBP1s-RLuc treated with the indicated concentrations of IRE1 activator compounds for 18 hr. Luminescence is shown as % signal relative to Tg treatment (500 nM; 18 hr) Error bars represent standard deviation for n=3 replicates (FIG. 2B).
HEK293T-Rex cells incorporating either the XBP1s-Rluc or ERSE-FLuc reporters were collected by trypsinization and resuspended at a density of 500,000 cells per mL. The assay was started by dispensing 5 μL of cell suspension into each well of white, solid-bottom 1536-well plates using a flying reagent dispenser (FRD) and placed into an online incubator for 3 hr. Cells were then treated with 34 nL/well of either test compounds to give final concentrations of 5.17 μM, DMSO (low control, final concentration 0.68%, 0% activation) or 37 μM of Delta-7 thapsigargin (high control, final concentration 500 nM, 100% activation). Plates were incubated for 18 hr at 37° C., removed from the incubator and equilibrated to room temperature for 10 min. Luciferase activity was detected by addition of 5 μL of ONE-Glo reagent (Promega) to each well. After a 10 min incubation time, light emission was measured with the ViewLux reader (PerkinElmer).
The percent activation of each test compound was calculated as follows: % Activation=100*(Test Compound-Median Low Control)/(Median High Control Median Low Control). Primary screening of the 646,275 compound library at Scripps Florida yielded 10,114 hits for XBP1s Renilla Luciferase activity at ≥13.83% activation by thapsigargin. Compounds that hit in more than 7 screens (promiscuity score) were eliminated, as well as those that elicited HSP70 activation. The top 6,391 remaining compounds (activation≥16.36%) were moved forward to triplicate confirmation screening and HEK TREX CTG cytotoxicity counterscreening. Duplicates were removed from the resulting list, and the top 638 activating compounds (≥15.92%) were moved forward for triplicate titration screening and HEK TREX CTG titration counterscreening.
A HEK293^T-REx cell line that stably expresses a XBP1-Renilla luciferase (XBP1-RLuc) splicing reporter was used to identify compounds that activated the IRE1/XBP1s signaling pathway^37. Activated IRE1selectively splices mRNA encoded by this reporter, resulting in a frame-shift that allows expression of the active Renilla luciferase enzyme^37. […]

## Cc1ccc(OCCN(C)C(=O)Cn2cc(NC(=O)CCOc3ccccc3)cn2)cc1 [Compound 474]
PERK geneset
  expression of the PERK geneset: did not demonstrate this effect
Extracellular Aβ
  extracellular Aβ in conditioned media: reduced extracellular Aβ
CHO 7WD10 cells
  cellular viability: without impacting cellular viability
CHO 7PA2 cells
  CHO 7PA2 viability: did not significantly influence
[1]
  EC50: < 3000 nM

## O=C(CN(Cc1ccc(Cl)cc1)S(=O)(=O)c1cccnc1)N1CCc2ccccc21 [Compound 970]
PERK geneset
  expression of the PERK geneset: did not demonstrate this effect
Extracellular Aβ
  extracellular Aβ in conditioned media: reduced extracellular Aβ
CHO 7WD10 cells
  cellular viability: without impacting cellular viability
CHO 7PA2 cells
  CHO 7PA2 viability: did not significantly influence
[1]
  EC50: < 3000 nM

## CCOC(CNC(=O)C1CCCN(Cc2nc(-c3ccc(Cl)cc3)oc2C)C1)OCC (stereo not drawn) [Compound 198]
PERK geneset
  expression of the PERK geneset: increased expression of the PERK geneset
Extracellular Aβ
  extracellular Aβ in conditioned media: reduced extracellular Aβ
CHO 7WD10 cells
  cellular viability: without impacting cellular viability
CHO 7PA2 cells
  CHO 7PA2 viability: did not significantly influence
[1]
  EC50: < 3000 nM
